Laboratory results as given in US11564975B2, “Use of GHRP-6 as late cardioprotective and cardiac restoration medicament” (Centro de Ingeniería Genética y Biotecnología, priority 2018, dated 2023).
Values joined by “and” are separate entries in the source; they are usually repeats but may differ in a detail not shown here. Equal entries are not always repeated. “Also recorded” adds a separate entry of the source.

Legend:
[1] = tested on: AMI with a ST Segment elevation; assay: AMI in pigs, one hour circumflex artery clamping followed by reperfusion; type: in vivo, female pigs of the Yorkshire breed; details: for Infarction Area (%): day 10
Experimental: (§1) The objective of the study was to evaluate, and to compare, the therapeutic impact of the late administration of GHRP-6 on functional parameters of the left ventricle, regarding the effect of the peptide acutely administered. Another objective was to assess the effect of late treatment in a group of animals in which the reperfusion was not performed.
(§2) The implementation of the AMI was performed in female pigs of the Yorkshire breed, with body weight of 22-27 kg. The anesthesia was induced with propofol, midazolam and pancuronium, by intravenous route. Under general anesthesia, obtained with a mixture of isofluorane/oxygen and nitrous oxide the ischemia was provoked. It was induced by a thoracotomy between the fifth and sixth intercostal spaces, until reaching the left circumflex artery, which was occluded by a 30 mm arterial clamping for one hour. Immediately, the record of the electrocardiogram and the heart rate was taken, every 20 seconds. At the end of 60 minutes of occlusion, the clamping was released, and so began the reperfusion phase, to complete the 10 days after ischemia. For the experimental group without reperfusion, that simulates the state called as non-reflux, a permanent ligation of the circumflex artery, with surgical thread, was performed. Both procedures, clamping and permanent ligation, induce an AMI with a ST Segment elevation. The recording of heart rate and electrocardiogram continued until the superficial suture of the thorax. The animals were sacrificed, by exsanguination, on the tenth day after the ischemia episode was induced. Under an anesthetic overdose, the determination of the area of the AMI was made, by means of the calculation of the area at risk with Evans blue.
(§3) For the echocardiographic evaluation, the pigs were previously sedated with a mixture of propofol/midazolam. A Kontron ultrasound system, Sigma 1 AC Cardio model, equipped with 3.5-7.5 MHz mechanical-cardiac sector transducers was used.
(§4) The parameters evaluated were the following: • Left Ventricle Ejection Fraction (LVEF), estimated by the Teich method. • Left Ventricle Tele-Systolic and Tele-diastolic Pressures. • Infarction Area, estimated on the area at risk (%).
(§5) Seven animals per group were used. In all groups, the animals received treatment every 12 hours, for 10 days after ischemia. The administrations of GHRP-6 or placebo were performed through a central catheter. In the case of the groups that received the peptide, it was diluted in 10 ml of physiological saline. The essence of the study was to evaluate the influence of the time of initiation of treatment on functional parameters and size of the ventricular not viable territory.

[2] = tested on: AMI with a ST Segment elevation; assay: AMI in pigs without reperfusion (non-reflux), permanent ligation of the circumflex artery; type: in vivo, female pigs of the Yorkshire breed
Experimental: as §1, §2, §3, §4, §5

[3] = tested on: AMI with ST segment elevation; assay: First cohort: patients with AMI with ST segment elevation, GHRP-6 immediately after angioplasty; type: in vivo, human
Experimental: First cohort. Comprising 19 patients over 30 years old, of both sexes, with a diagnosis of AMI with ST segment elevation, all with occlusion of the anterior descending artery, first episode, who arrived at a cardiology department before 12 hours of implantation of the precordial pain. The average door-ball time was 6 hours. All patients received primary percutaneous transluminal angioplasty, and immediately after the culprit artery flow was restored they received treatment with GHRP-6. In some patients, the treatment was performed by intra-coronary flushing, after the flow was restored. Residual lesions occupied less than 25% of the initial occlusion area, so it was considered as a TIMI 3, according to the Coronary Risk Score known as TIMI. In other cases, the first administration was performed by a central-venous route, just at the time of reperfusion, in the hemodynamic room. GHRP-6 was administered at a dose of 100 μg/kg of body weight, twice a day, for 7 days, time spent in the coronary intensive care hospital room. […]

[4] = tested on: AMI with elevated ST segment; assay: Second cohort: AMI patients with low cardiac output syndrome / cardiogenic shock, late treatment with GHRP-6; type: in vivo, human; details: for LVEF: individual patients, late treatment, echocardiography at 90 days
Experimental: Second cohort. Comprising 13 patients over 30 years old, of both sexes, with a diagnosis of AMI with elevated ST segment, who received percutaneous transluminal angioplasty before 12 hours of implantation of precordial pain. All these patients evolved in an unfavorable way, and with uncertain prognosis between 24 and 96 hours after a successful endoluminal reperfusion, according to the imaging criteria all were considered as TIMI grade 3.
This led to the decision of establishing an alternative treatment with GHRP-6, to try to reduce dyskinesia of the ventricular musculature, to attenuate the process of presumed stunning, to dampen hypoxia, and to rescue from death a territory of ischemic ventricular mass. The patients who implanted a reinfarction received rescue angioplasty. One of these patients died during the procedure. None of the patients met criteria for the coronary revascularization practice. In these cases, the first administration of the peptide was carried out at least after 48 hours of torpid evolution after a TIMI 3. During the treatment time, the GHRP-6 was administered intravenously, every 12 hours.

Grade IV heart failure = assay: Compassionate treatment of patients with Grade IV heart failure awaiting heart transplantation; type: in vivo, human; details: for Cardiac output (L/m) / LVEF % / Oxygen consumption / Systolic volume: individual patients
Excerpt: This is a cohort of 7 patients, who received the compassionate treatment with GHRP-6, under informed consent. All patients were in advanced heart failure, evaluated as functional class grade IV, according to the scale of the New York Heart Association. These patients were hospitalized in specialized cardiology services of two hospitals, and the ischemic heart disease, the idiopathic dilated cardiomyopathy, the heart valve disease, and the postpartum dilated cardiomyopathy were considered as the underlying condition for heart failure. […] They had minimal effort dyspnea, inability to adequately fulfill the 6 minutes' walk test, and instability in fluid balance and renal function, despite the diet control and the treatment with diuretics, the restriction of salt and the monitoring body weight.
All patients received between 50 and 200 μg of GHRP-6/kg body weight, two or three times a day, according to medical criteria, by intravenous route. All treatments were performed while the patients were awaiting for heart transplantation. The treatment period with GHRP-6 was between 25 days and 30 days per cycle.
A cycle of treatment with GHRP-6 was performed every three months. The maximum was three cycles. All patients were maintained with previous medical treatments, based on digital, diuretics, renin-angiotensin-aldosterone axis inhibitors (neurohormones) and pressor amines when required.

[5] = Group 2: 400 μg/kg every 12 h for 10 days, onset immediately at the beginning of reperfusion
[6] = Group 3: 400 μg/kg every 12 h, onset 72 hours after the start of reperfusion
[7] = Group 4: 400 μg/kg every 12 h, onset 5 days after the start of reperfusion
[8] = Group 5: no reperfusion, 400 μg/kg every 12 h, onset one hour after the artery was permanently clamped
[9] = 30 days after PTA, 100 μg/kg twice a day for 7 days
[10] = 90 days after PTA, 100 μg/kg twice a day for 7 days
[11] = start of treatment, minutes after the PTA (baseline)
[12] = after treatment, 50-200 μg/kg two or three times a day intravenously

## growth hormone releasing peptide-6 [GHRP-6]
[1]; [5]
  LV telediastolic pressure (mmHg): 4.6 ± 1.1 mmHg
  LV telesystolic pressure (mmHg): 80 ± 2.2 mmHg
  LVEF %: 80 ± 2.5%
  Infarction Area (%): 31.6 ± 5.2%
[1]; [6]
  LV telediastolic pressure (mmHg): 4.4 ± 1.6 mmHg
  LV telesystolic pressure (mmHg): 81 ± 3.0 mmHg
  LVEF %: 77 ± 4.1%
  Infarction Area (%): 35.4 ± 6.4%
[1]; [7]
  LV telediastolic pressure (mmHg): 5.2 ± 0.8 mmHg
  LV telesystolic pressure (mmHg): 77 ± 3.1 mmHg
  LVEF %: 60 ± 6.6%
  Infarction Area (%): 37.0 ± 4.3%
[1]; all groups that received GHRP-6, regardless of when treatment started
  diastolic pressure compared to the placebo group: significant reduction
[1]; medicated from 5 days after the ischemic event, versus placebo
  LVEF rescued: 22%
[1]; start of treatment on the fifth day
  decline of LVEF compared to baseline physiological conditions: 21%
[1]; statistical comparison of Groups 2 and 3
  infarct size effect: treatment in parallel to reperfusion versus started 72 hours later: no significant statistically differences
[1]; treatment initiated on the 5th day after ischemia
  ventricular territory (area at risk) rescued from death: 8%
[1]; treatment started 72 hours after reperfusion
  reduction of the size of myocardial infarction in comparison to placebo: ~13%
[2]; [8]
  LV telediastolic pressure (mmHg): 5.1 ± 1.9 mmHg
  LV telesystolic pressure (mmHg): 80 ± 2.6 mmHg
  LVEF %: 72 ± 5.5%
[2]; Group 5: no reperfusion, 400 μg/kg every 12 h, onset one hour after the artery was permanently clamped, day 10
  Infarction Area (%): 36.1 ± 2.8%
[2]; no reperfusion
  reduction of the area of ventricular death: 12%
[2]; non-reflux group, without reperfusion
  LVEF difference with baseline conditions: 9%
[3]; [9]
  LVEF %: 51 ± 8.6%
  SPWT (mm): 11.6 ± 0.7 mm
  SSF %: 35 ± 6.5%
  SST (mm): 10.3 ± 1.6 mm
  Telediastolic volumen: 87 ± 11 mL
  Telesystolic volume: 65 ± 23 mL
[3]; [10]
  LVEF %: 57 ± 6.6%
  SPWT (mm): 11.3 ± 1.8 mm
  SSF %: 42 ± 9.6%
  SST (mm): 10.7 ± 1 mm
  Telediastolic volumen: 111 ± 16 mL
  Telesystolic volume: 49 ± 8 mL
[3]; Cohort 1, acute treatment, 90 days after treatment
  LVEF %. Mean ± SD: 57.0 ± 6.61%
[3]; first cohort, GHRP-6 after successful angioplasty (TIMI 3)
  clinical evolution of the patients: favorable evolution, without further important complications; also recorded: progressive improvement over time
[3]; [11]
  LVEF %: 38 ± 5.9%
  SSF %: 27 ± 2.6%
  Telediastolic volumen: 81 ± 14 mL
  Telesystolic volume: 77 ± 12 mL
[3]; start of treatment, minutes after the PTA (baseline), echocardiography
  SPWT (mm): 10.1 ± 2 mm
[4]; Cohort 2, late treatment, 90 days after treatment
  LVEF %. Mean ± SD: 50.8 ± 5.34%
[4]; after start of peptide treatment
  interval to suspension of vasopressor amines: ~96 h
[4]; 100 μg/kg every 12 hours
  LVEF: LVEF of 63%; also recorded: LVEF of 48%; also recorded: LVEF of 50%; also recorded: LVEF of 52%; also recorded: LVEF of 56%; also recorded: LVEF of 45%
[4]; 200 μg/kg every 12 hours
  LVEF: LVEF of 47%; also recorded: LVEF of 51%; also recorded: LVEF of 46%
[4]; patients evaluated, after start of peptide treatment
  patients in whom suspension of vasopressor amines was achieved: 8 out of 10
[4]; second cohort
  surviving patients of the 13 critical patients: 12
Grade IV heart failure; Grade IV heart failure patients in the transplant pool
  overall response to treatment: restore cardiac, hemodynamic, ventilatory and clinical constants
Grade IV heart failure; [12]
  Cardiac output (L/m): 4.3 L/m and 3.8 L/m and 2.9 L/m and 3.2 L/m (2×) and 3.08 L/m and 2.89 L/m
  LVEF %: 28% and 30% and 29% and 23% and 25% and 31% and 26%
  Oxygen consumption: 7.7 mL/min/kg and 7 mL/min/kg and 6.4 mL/min/kg and 7.2 mL/min/kg and 7.6 mL/min/kg and 6.6 mL/min/kg and 9.5 mL/min/kg
Grade IV heart failure; after treatment, 50-200 μg/kg two or three times a day intravenously, in mL (unit assumed)
  Systolic volume: 50 and 54 and 60 and 56 and 49 and 47 and 51
Grade IV heart failure; before treatment
  Cardiac output (L/m): 3.2 L/m and 2.7 L/m and 1.89 L/m and 2.17 L/m and 2.41 L/m and 2.1 L/m and 1.98 L/m
  LVEF %: 20% (2×) and 19% and 21% (2×) and 22% and 18%
  Oxygen consumption: 4.12 mL/min/kg and 3.91 mL/min/kg and 3.05 mL/min/kg and 4.1 mL/min/kg and 3.87 mL/min/kg and 4.2 mL/min/kg and 3.63 mL/min/kg
  Systolic volume: 29 (2×) and 30 and 31 and 35 and 25 and 27
